# According to PubChem BioAssay AID2060627 (Molecular Pharmacology Branch, DTP, NCI, 2025):
# “And” between values parts separate entries of the source, which are not always exact repeats. Identical values can stand only once.
# Test system: 156681-154-R-J1-PDC complex spheroid viability
# Assay: Anticancer human tumor 156681-154-R-J1-PDC patient-derived melanoma cell line growth inhibition [CLK]
# Conditions: for viability, T/C: stronger effect = lower value
# Description: A high-throughput screen of multi-cell type tumor spheroids was designed to identify active combinations of […] and targeted small molecules. Complex spheroids include a stromal component modeled by human endothelial cells (HUVEC) and fibroblasts modeled by human mesenchymal stem cells (MSCs). The concentration ranges selected for each drug and investigational agent were based upon clinically achievable concentrations if the clinical Cmax of the agent was known.
# Compounds. The drugs and investigational agents: cirtuvivint (SM08502; NSC835563), CC-671 (NSC850746), vemurafenib (NSC761431), tapotoclax (NSC804041), sotorasib (NSC818433), adagrasib (NSC831453), MRTX-1133 (NSC836407), BAY2416964 (NSC825713), copanlisib (NSC816437), inavolisib (NSC800729), abemaciclib (NSC768073), osimertinib (NSC779217), entinostat (NSC756642), eltanexor (KPT-8602, NSC794443), venetoclax (NSC766270), ceralasertib (NSC777638), bortezomib (NSC756655), olaparib (NSC753686), talazoparib (NSC767125), alisertib (NSC759677), peposertib (NSC802822), gemcitabine (NSC613327), 5-fluorouracil (NSC19893), SN-38 (NSC673596), oxaliplatin (NSC266046), paclitaxel (NSC125973), and doxorubicin (NSC123127), were obtained from the National Cancer Institute (NCI) Developmental Therapeutics Program Chemical Repository. The FDA-approved anticancer drug set is available from the Developmental Therapeutics Program at https://dtp.cancer.gov/organization/dscb/obtaining/available plates.htm. […] The stock solutions were prepared in dimethyl sulfoxide (DMSO, Sigma-Aldrich, St. Louis, MO, cat. D2650), except for the platinum complexes which were prepared in saline (Quality Biological, Gaithersburg, MD, cat. 114-055-101), at 800-fold the tested concentration and stored at -70 degrees C prior to their use. All drugs and investigational agents were tested over a range starting from a high concentration at or near the clinical Cmax and decreasing in half-log increments. If the clinical Cmax for an agent had not been determined, the highest concentration tested was 10 microM.
# Cell Culture. All cells were maintained in an incubator at 37 degrees C and 5% CO2 with 95% humidity. The PDC lines were cultured according to standard operating procedures established by the NCI PDMR. Briefly, all PDCs were thawed and cultured in Matrigel-coated flasks prepared with a working solution of 1X Ham's F-12 nutrient mix, without supplementation (Invitrogen, Waltham, MA, cat. 11765054), 100 U/mL penicillin-streptomycin (Invitrogen, cat. 15140122), and 2.5% Matrigel (Corning Inc., Corning, NY, cat. 354248) for the first three passages. The 947758-054-R-J2-PDC line was cultured in 6B/Colon 1A media, which includes advanced DMEM/F-12 (Thermo Fisher Scientific, cat. 12634028), 10 mM HEPES (Thermo Fisher Scientific, cat. 15630080), 1X GlutaMAX supplement (Thermo Fisher Scientific, cat. 35050061), 0.1 mg/mL primocin (InvivoGen, cat. ant-pm-2), 10% defined fetal bovine serum, heat inactivated (HyClone Laboratories Inc., cat. SH30070.03HI), 1.25 mM N-Acetyl-L-cysteine (Sigma-Aldrich, cat. A9165), 10 mM nicotinamide (Sigma-Aldrich, cat. N0636), 1X B-27 supplement (Thermo Fisher Scientific, cat. 17504044), 1X N-2 supplement (Thermo Fisher Scientific, cat. 17502048), and 10 microM Y-27632 dihydrochloride (Tocris Bioscience, cat. 1254). The 876862-298-R-J1-PDC was cultured in 6E media, which includes all 6B/Colon 1A media components plus 50% L-WRN conditioned media (ATCC, cat. CRL-3276), 50 ng/mL recombinant human EGF recombinant protein (hEGF; Thermo Fisher Scientific, cat. PHG0311), 10 ng/mL recombinant human fibroblast growth factor 10 (hGFG-10; PeproTech, cat. 100-26), 1 ng/mL recombinant human fibroblast growth factor 2 (hFGF-2; PeproTech, cat. 100-18B), and 1 µM prostaglandin E2 (PGE2; Tocris, cat. 2296). The 227483-062-R1-J1-PDC line was cultured in Panc media, containing all 6E components except hFGF-2, with the addition of 500 nM SB-431542 (Selleckchem, cat. S1067) and 10 nM gastrin (Tocris, cat. 3006). […]
# [1] = curve of first compound, second compound 0.0316 µM
# [2] = curve of first compound, second compound 0.1 µM
# [3] = curve of first compound, second compound 0.316 µM
# [4] = curve of first compound, second compound 1 µM
# [5] = curve of first compound, second compound 3.16 µM
# [6] = curve of first compound, second compound 10 µM
# [7] = second compound 0.0316 µM, first compound 0.0316 µM
# [8] = second compound 0.0316 µM, first compound 0.1 µM
# [9] = second compound 0.0316 µM, first compound 0.316 µM
# [10] = second compound 0.0316 µM, first compound 1 µM
# [11] = second compound 0.1 µM, first compound 0.0316 µM
# [12] = second compound 0.1 µM, first compound 0.1 µM
# [13] = second compound 0.1 µM, first compound 0.316 µM
# [14] = second compound 0.1 µM, first compound 1 µM
# [15] = second compound 0.316 µM, first compound 0.0316 µM
# [16] = second compound 0.316 µM, first compound 0.1 µM
# [17] = second compound 0.316 µM, first compound 0.316 µM
# [18] = second compound 0.316 µM, first compound 1 µM
# [19] = second compound 1 µM, first compound 0.0316 µM
# [20] = second compound 1 µM, first compound 0.1 µM
# [21] = second compound 1 µM, first compound 0.316 µM
# [22] = second compound 1 µM, first compound 1 µM
# [23] = second compound 3.16 µM, first compound 0.0316 µM
# [24] = second compound 3.16 µM, first compound 0.1 µM
# [25] = second compound 3.16 µM, first compound 0.316 µM
# [26] = second compound 3.16 µM, first compound 1 µM
# [27] = second compound 10 µM, first compound 0.0316 µM
# [28] = second compound 10 µM, first compound 0.1 µM
# [29] = second compound 10 µM, first compound 0.316 µM
# [30] = second compound 10 µM, first compound 1 µM
# 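Also: spheroids exposed to the agents for seven days.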
# 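For viability, T/C in this document: 100% = DMSO vehicle control viability.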
structure (smiles),measurement,setting,value
CCN1CCN(Cc2ccc(Nc3ncc(F)c(-c4cc(F)c5nc(C)n(C(C)C)c5c4)n3)nc2)CC1 + CNC(=O)c1ccc(Nc2nc(OC3CCCC3)c3c(-c4ccc5nc(C)oc5c4)c[nH]c3n2)c(OC)c1,IC50,[1],825 nM
same,IC50,[2],429 nM
same,IC50,[3],429 nM
same,IC50,[4],394 nM
same,IC50,[5],< 3.16 nM
same,IC50,[6],< 3.16 nM
same,"viability, T/C","second compound 0.0316 µM, first compound 0.00316 µM",93%
same,"viability, T/C","second compound 0.0316 µM, first compound 0.01 µM",104%
same,"viability, T/C",[7],83.7%
same,"viability, T/C",[8],84.2%
same,"viability, T/C",[9],75.5%
same,"viability, T/C",[10],44.3%
same,"viability, T/C","second compound 0.1 µM, first compound 0.00316 µM",50.5%
same,"viability, T/C","second compound 0.1 µM, first compound 0.01 µM",72.3%
same,"viability, T/C",[11],68.2%
same,"viability, T/C",[12],57.9%
same,"viability, T/C",[13],52.9%
same,"viability, T/C",[14],38.6%
same,"viability, T/C","second compound 0.316 µM, first compound 0.00316 µM",85.4%
same,"viability, T/C","second compound 0.316 µM, first compound 0.01 µM",62%
same,"viability, T/C",[15],72.2%
same,"viability, T/C",[16],77.8%
same,"viability, T/C",[17],54%
same,"viability, T/C",[18],39%
same,"viability, T/C","second compound 1 µM, first compound 0.00316 µM",51.8%
same,"viability, T/C","second compound 1 µM, first compound 0.01 µM",56.5%
same,"viability, T/C",[19],51.3%
same,"viability, T/C",[20],60.2%
same,"viability, T/C",[21],61%
same,"viability, T/C",[22],24.2%
same,"viability, T/C","second compound 3.16 µM, first compound 0.00316 µM",61.6%
same,"viability, T/C","second compound 3.16 µM, first compound 0.01 µM",47.8%
same,"viability, T/C",[23],40.7%
same,"viability, T/C",[24],48%
same,"viability, T/C",[25],46.6%
same,"viability, T/C",[26],19.8%
same,"viability, T/C","second compound 10 µM, first compound 0.00316 µM",51.7%
same,"viability, T/C","second compound 10 µM, first compound 0.01 µM",38.5%
same,"viability, T/C",[27],43.8%
same,"viability, T/C",[28],51%
same,"viability, T/C",[29],41.9%
same,"viability, T/C",[30],21.7%
CC(=O)O[C@H]1C(=O)[C@@]2(C)[C@H]([C@H](OC(=O)c3ccccc3)[C@]3(O)C[C@H](OC(=O)[C@H](O)[C@@H](NC(=O)c4ccccc4)c4ccccc4)C(C)=C1C3(C)C)[C@]1(OC(C)=O)CO[C@@H]1C[C@@H]2O + CNC(=O)c1ccc(Nc2nc(OC3CCCC3)c3c(-c4ccc5nc(C)oc5c4)c[nH]c3n2)c(OC)c1,IC50,[1],< 31.6 nM
same,IC50,[2],< 31.6 nM
same,IC50,[3],> 10000 nM
same,IC50,[4],> 10000 nM
same,IC50,[5],> 10000 nM
same,IC50,[6],> 10000 nM
same,"viability, T/C",[7],16.8%
same,"viability, T/C",[8],19%
same,"viability, T/C",[9],13.9%
same,"viability, T/C",[10],19.6%
same,"viability, T/C","second compound 0.0316 µM, first compound 3.16 µM",30.7%
same,"viability, T/C","second compound 0.0316 µM, first compound 10 µM",41.1%
same,"viability, T/C",[11],36.3%
same,"viability, T/C",[12],24.6%
same,"viability, T/C",[13],38.9%
same,"viability, T/C",[14],44.2%
same,"viability, T/C","second compound 0.1 µM, first compound 3.16 µM",61.3%
same,"viability, T/C","second compound 0.1 µM, first compound 10 µM",56.1%
same,"viability, T/C",[15],78.4%
same,"viability, T/C",[16],88.8%
same,"viability, T/C",[17],55.4%
same,"viability, T/C",[18],91.9%
same,"viability, T/C","second compound 0.316 µM, first compound 3.16 µM",102%
same,"viability, T/C","second compound 0.316 µM, first compound 10 µM",95.3%
same,"viability, T/C",[19],58.5%
same,"viability, T/C",[20],66.6%
same,"viability, T/C",[21],65.5%
same,"viability, T/C",[22],71.7%
same,"viability, T/C","second compound 1 µM, first compound 3.16 µM",85%
same,"viability, T/C","second compound 1 µM, first compound 10 µM",76.4%
same,"viability, T/C",[23],63.2%
same,"viability, T/C",[24],60.1%
same,"viability, T/C",[25],56%
same,"viability, T/C",[26],71.4%
same,"viability, T/C","second compound 3.16 µM, first compound 3.16 µM",78.6%
same,"viability, T/C","second compound 3.16 µM, first compound 10 µM",58.4%
same,"viability, T/C",[27],51.6%
same,"viability, T/C",[28],51.3%
same,"viability, T/C",[29],55.2%
same,"viability, T/C",[30],47.1%
same,"viability, T/C","second compound 10 µM, first compound 3.16 µM",57.5%
same,"viability, T/C","second compound 10 µM, first compound 10 µM",55.2%
C=C(F)C(=O)N1CCN(c2nc(OCC3CCCN3C)nc3c2CCN(c2cccc4cccc(Cl)c24)C3)CC1CC#N (stereo unspecified),"viability, T/C",compound 0.0316 µM,62.4% and 97.8%
same,"viability, T/C",compound 0.1 µM,68.8% and 78%
same,"viability, T/C",compound 0.316 µM,85% and 95.9%
same,"viability, T/C",compound 1 µM,51.9% and 90.4%
same,"viability, T/C",compound 3.16 µM,11.4% and 28.5%
same,"viability, T/C",compound 10 µM,1.93% and 0.2%
same,IC50,curve of compound,1100 nM and 2120 nM
